Assay results taken from patent US20250032623A1, “HETEROBIFUNCTIONAL COMPOUNDS AND THEIR USE IN TREATING DISEASE” (HALDA THERAPEUTICS OPCO, INC., priority 2021, published 2025).
Read-outs that look alike come from different tables or passages of the source.

Assays:
[1] = target: T1, EGFR (Homo sapiens, UniProt P00533); assay: KdELECT binding assay, EGFR
T1 construct: purchased
Method: Exemplary compounds were tested for ability to bind to EGFR.
Compounds were tested using a KdELECT assay. Kinase-tagged T7 phage strains were prepared in an E. coli host derived from the BL21 strain. E. coli were grown to log-phase and infected with T7 phage and incubated with shaking at 32° C. until lysis. The lysates were centrifuged and filtered to remove cell debris. The remaining kinases were produced in HEK-293 cells and subsequently tagged with DNA for qPCR detection. Streptavidin-coated magnetic beads were treated with biotinylated small molecule ligands for 30 minutes at room temperature to generate affinity resins for kinase assays. The liganded beads were blocked with excess biotin and washed with blocking buffer (SeaBlock (Pierce), 1% BSA, 0.05% Tween 20, 1 mM DTT) to remove unbound ligand and to reduce non-specific binding. Binding reactions were assembled by combining kinases, liganded affinity beads, and test compounds in 1× binding buffer (20% SeaBlock, 0.17×PBS, 0.05% Tween 20, 6 mM DTT). Test compounds were prepared as 111× stocks in 100% DMSO. Kd values were determined using an 11-point 3-fold compound dilution series with three DMSO control points. All compounds for Kd measurements are distributed by acoustic transfer (non-contact dispensing) in 100% DMSO. The compounds were then diluted directly into the assays such that the final concentration of DMSO was 0.9%. All reactions performed in polypropylene 384-well plate. Each was a final volume of 0.02 mL. The assay plates were incubated at room temperature with shaking for 1 hour and the affinity beads were washed with wash buffer (1× PBS, 0.05% Tween 20). The beads were then re-suspended in elution buffer (1× PBS, 0.05% Tween 20, 0.5 μM nonbiotinylated affinity ligand) and incubated at room temperature with shaking for 30 minutes. The kinase concentration in the eluates was measured by qPCR.

[2] = tested on: HEK293 cells; assay: Cellular growth inhibition assay (CellTiter-Glo), HEK293 cells; type: cell-based; conditions: three days compound treatment, CellTiter-Glo 2.0, read-out: CTG HEK293 GI50
Method: (§1) Exemplary compounds were tested for ability to inhibit the proliferation of HEK293 cells or HeLa cells.
(§2) HEK293 and HeLa cells were cultured in DMEM medium supplemented with 10% fetal bovine serum and 1% Penn/Strep. Cells were seeded in white 384-well plates at 500 cells/well in […] complete medium. Following seeding, plates were spun at 300×g for three minutes and cultured at 37° C. with 5% CO2 in a humidified tissue culture incubator.
(§3) After 24 hours, compounds were titrated in 100% DMSO and diluted in complete cell culture medium. […] of compound/media mixture was added to cells to bring total volume in well to […]. DMSO alone was used as a negative control. P lates were then spun at 300×g for three minutes and stored at 37° C. with 5% CO2 for three days.
(§4) On Day 0 and Day 3 of compound treatment, cell viability was quantified with CellTiter-Glo 2.0 reagent (Promega). After equilibrating microplates at room temperature for 30 minutes, 25 μL CellTiter-Glo 2.0 reagent was dispensed into each well to bring total volume to […]. Plates were mixed on shaker for 2 minutes at 500 rpm, followed by a 10-minute incubation at room temperature. Following a quick spin, luminescence readings were measured with an EnVision Plate Reader. Data was normalized to DMSO treated Day 0 and Day 3 readings. A four-parameter non-linear regression curve fit was applied to dose-response data in GraphPad Prism data analysis software to determine the half maximal growth inhibitory concentration (GI50) for each compound.

[3] = tested on: HeLa cells; assay: Cellular growth inhibition assay (CellTiter-Glo), HeLa cells; type: cell-based; conditions: three days compound treatment, CellTiter-Glo 2.0, read-out: CTG HELA GI50
Method: as §1, §2, §3, §4

T1 sequence (P00533 25-1210): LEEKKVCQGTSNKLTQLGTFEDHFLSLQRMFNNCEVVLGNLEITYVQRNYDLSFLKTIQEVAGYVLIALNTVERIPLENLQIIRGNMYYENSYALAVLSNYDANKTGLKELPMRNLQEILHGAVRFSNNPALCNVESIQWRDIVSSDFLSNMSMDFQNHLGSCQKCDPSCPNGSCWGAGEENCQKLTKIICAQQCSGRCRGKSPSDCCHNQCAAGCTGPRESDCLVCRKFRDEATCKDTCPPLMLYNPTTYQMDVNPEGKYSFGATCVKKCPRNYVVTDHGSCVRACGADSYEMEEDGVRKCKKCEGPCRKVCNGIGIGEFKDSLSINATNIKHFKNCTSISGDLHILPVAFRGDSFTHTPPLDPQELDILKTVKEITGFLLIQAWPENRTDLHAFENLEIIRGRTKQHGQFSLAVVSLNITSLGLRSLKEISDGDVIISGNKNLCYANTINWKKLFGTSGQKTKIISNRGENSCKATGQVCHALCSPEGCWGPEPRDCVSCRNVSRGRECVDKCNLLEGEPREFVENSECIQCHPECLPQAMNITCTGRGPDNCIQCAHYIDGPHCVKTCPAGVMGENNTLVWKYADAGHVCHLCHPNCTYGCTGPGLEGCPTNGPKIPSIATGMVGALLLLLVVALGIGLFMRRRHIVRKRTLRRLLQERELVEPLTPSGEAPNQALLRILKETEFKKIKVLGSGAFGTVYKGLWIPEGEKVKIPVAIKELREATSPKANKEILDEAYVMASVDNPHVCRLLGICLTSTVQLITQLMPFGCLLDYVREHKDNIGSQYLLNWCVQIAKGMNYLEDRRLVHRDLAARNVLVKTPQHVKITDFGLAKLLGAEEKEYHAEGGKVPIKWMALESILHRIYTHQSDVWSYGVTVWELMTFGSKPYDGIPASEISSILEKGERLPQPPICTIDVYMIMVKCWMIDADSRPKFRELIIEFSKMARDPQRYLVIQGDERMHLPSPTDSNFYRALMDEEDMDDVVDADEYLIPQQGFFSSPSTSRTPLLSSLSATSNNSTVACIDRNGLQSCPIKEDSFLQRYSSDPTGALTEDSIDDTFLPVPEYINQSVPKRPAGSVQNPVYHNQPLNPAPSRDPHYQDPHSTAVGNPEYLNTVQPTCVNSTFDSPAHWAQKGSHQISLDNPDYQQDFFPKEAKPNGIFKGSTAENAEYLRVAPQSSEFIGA

| GI50 ([3]; Homo sapiens, 72 h) [nM] | SMILES | GI50 ([2]; Homo sapiens, 72 h) [nM] | also measured |
| --- | --- | --- | --- |
|  | C=CC(=O)N[C@@H]1CN(c2nc(Nc3cn(CCOCCOCCOCCOCCON(C)C(=O)N4N=C(c5cc(F)ccc5F)SC4(CCCN)c4ccccc4)nc3OC)c3ncn(C)c3n2)C[C@H]1F (some centres unmarked) [Compound I-66] |  | Kd [1]: < 50 nM |
| > 5000 | CCc1cnn2c(NCc3ccc(OCCOCCOCCOCCOCCN(C)C/C=C/C(=O)N4CCN(c5nc(=O)n(-c6c(C)ccnc6C(C)C)c6nc(-c7c(O)cccc7F)c(F)cc56)[C@@H](C)C4)nc3)cc(N3CCCC[C@H]3CCO)nc12 [Compound I-76] | > 5000 |  |
|  | Cc1c(CC(=O)N(C)C)ccc(NC(=O)c2nn([C@@H]3CCCN(C(=O)/C=C/CN(C)CCOCCOCC(=O)NCCCCn4nc(-c5ccc6oc(N)nc6c5)c5c(N)ncnc54)C3)c3ncnc(N)c23)c1C [Compound I-83, 4-amino-1-[(3R)-1-[(E)-4-[2-1[2-[2-[4-[4-amino-3-(2-amino-1,3-benzoxazol-5-yl)pyrazolo[3,4-d]pyrimidin-1-yl]butylamino]-2-oxo-ethoxy]ethoxy]ethyl-methyl-amino]but-2-enoyl]-3-piperidyl]-N-[4-[2-(dimethylamino)-2-oxo-ethyl]-2,3-dimethyl-phenyl]pyrazolo[3,4-d]pyrimidine-3-carboxamide] |  | GI50 [2]: 1500 to 5000 nM; GI50 [3]: > 5000 nM |
|  | C=CC(=O)NC1CN(c2nc(Nc3cn(CCOCCOCCOCCOCCOCCOCCNC(=O)c4ccc(Nc5ncc6c(n5)N(C5CCCC5)[C@H](CC)C(=O)N6C)c(OC)c4)nc3OC)c3ncn(C)c3n2)C[C@H]1F (stereo partly drawn) [Compound I-114, 4-[[(7R)-8-cyclopentyl-7-ethyl-5-methyl-6-oxo-7H-pteridin-2-yl]amino]-N-[2-[2-[2-[2-[2-[2-[2-[4-[[2-[(3R)-3-fluoro-4-(prop-2-enoylamino)pyrrolidin-1-yl]-9-methyl-purin-6-yl]amino]-3-methoxy-pyrazol-1-yl]ethoxy]ethoxy]ethoxy]ethoxy]ethoxy]ethoxy]ethyl]-3-methoxy-benzamide] | 1500 to 5000 |  |
|  | CC[C@@H]1C(=O)N(C)c2cnc(Nc3ccc(C(=O)NCCN(C)C/C=C/C(=O)Nc4cc(Nc5nccc(-c6cn(C)c7ccccc67)n5)c(OC)cc4N(C)CCN(C)C)cc3OC)nc2N1C1CCCC1 [Compound I-116, 4-[[(7R)-8-cyclopentyl-7-ethyl-5-methyl-6-oxo-7H-pteridin-2-yl]amino]-N-[2-[[(E)-4-1[2-[2-(dimethylamino)ethyl-methyl-amino]-4-methoxy-5-[[4-(1-methylindol-3-yl)pyrimidin-2-yl]amino]anilino]-4-oxo-but-2-enyl]-methyl-amino]ethyl]-3-methoxy-benzamide] | 1500 to 5000 |  |
|  | CC[C@@H]1C(=O)N(C)c2cnc(Nc3ccc(C(=O)NCCN(C)C/C=C/C(=O)NC4CN(c5nc(Nc6cn(C)nc6OC)c6ncn(C)c6n5)C[C@H]4F)cc3OC)nc2N1C1CCCC1 (stereo partly drawn) [Compound I-119, 4-[l[(7R)-8-cyclopentyl-7-ethyl-5-methyl-6-oxo-7H-pteridin-2-yl]amino]-N—[2-[ [(E)-4-[ [(3R,4R)-4-fluoro-1-[6-[(3-methoxy-1-methyl-pyrazol-4-yl)amino]-9-methyl-purin-2-yl]pyrrolidin-3-yl]amino]-4-oxo-but-2-enyl]-methyl-amino]ethyl]-3-methoxy-benzamide] | 1500 to 5000 |  |
|  | C=CC(=O)N[C@@H]1CN(c2nc(Nc3cn(CCOCCOCCNS(=O)(=O)c4ccc(Nc5ncc(Br)c(Nc6cccc(F)c6C(N)=O)n5)cc4)nc3OC)c3ncn(C)c3n2)C[C@H]1F [Compound I-142, 2-[[5-bromo-2-[4-[2-[2-[2-[4-[[2-1[(3R,4R)-3-fluoro-4-(prop-2-enoylamino)pyrrolidin-1-yl]-9-methyl-purin-6-yl]amino]-3-methoxy-pyrazol-1-yl]ethoxy]ethoxy]ethylsulfamoyl]anilino]pyrimidin-4-yl]amino]-6-fluoro-benzamide] |  | GI50 [2]: > 5000 nM; GI50 [3]: 1500 to 5000 nM |
|  | C=CC(=O)N[C@@H]1CN(c2nc(Nc3cn(CCOCCOCCOc4ccc(CNc5cc(N6CCCC[C@H]6CCO)nc6c(CC)cnn56)cn4)nc3OC)c3ncn(C)c3n2)C[C@H]1F [Compound I-144, N-[(3R,4R)-1-[6-[[1-[2-[2-[2-[[5-1[[[3-ethyl-5-[(2S)-2-(2-hydroxyethyl)-1-piperidyl]pyrazolo[1,5-a]pyrimidin-7-yl]amino]methyl]-2-pyridyl]oxy]ethoxy]ethoxy]ethyl]-3-methoxy-pyrazol-4-yl]amino]-9-methyl-purin-2-yl]-4-fluoro-pyrrolidin-3-yl]prop-2-enamide] |  | GI50 [2]: < 500 nM; GI50 [3]: < 500 nM |
| < 500 | C=CC(=O)N[C@@H]1CN(c2nc(Nc3cn(CCOCCOCCOCCOCCOc4ccc(CNc5cc(N6CCCC[C@H]6CCO)nc6c(CC)cnn56)cn4)nc3OC)c3ncn(C)c3n2)C[C@H]1F [Compound I-145, N-[(3R,4R)-1-[6-[[1-[2-[2-[2-[2-[2-[[5-[[[3-ethyl-5-[(2S)-2-(2-hydroxyethyl)-1-piperidyl]pyrazolo[1,5-a]pyrimidin-7-yl]amino]methyl]-2-pyridyl]oxy]ethoxy]ethoxy]ethoxy]ethoxy]ethyl]-3-methoxy-pyrazol-4-yl]amino]-9-methyl-purin-2-yl]-4-fluoro-pyrrolidin-3-yl]prop-2-enamide] | < 500 |  |
| 500 to 1500 | C=CC(=O)N[C@@H]1CN(c2nc(Nc3cn(CCCN4CCN(CCCOc5ccc(CNc6cc(N7CCCC[C@H]7CCO)nc7c(CC)cnn67)cn5)CC4)nc3OC)c3ncn(C)c3n2)C[C@H]1F [Compound I-147, N-[(3R,4R)-1-[6-[[1-[3-[4-[3-[[5-[[[3-ethyl-5-[(2S)-2-(2-hydroxyethyl)-1-piperidyl]pyrazolo[1,5-a]pyrimidin-7-yl]amino]methyl]-2-pyridyl]oxy]propyl]piperazin-1-yl]propyl]-3-methoxy-pyrazol-4-yl]amino]-9-methyl-purin-2-yl]-4-fluoro-pyrrolidin-3-yl]prop-2-enamide] | < 500 |  |
| < 500 | C=CC(=O)N[C@@H]1CN(c2nc(Nc3cn(CCCCCCCCNS(=O)(=O)c4ccc(Nc5ncc(Br)c(Nc6cccc(F)c6C(N)=O)n5)cc4)nc3OC)c3ncn(C)c3n2)C[C@H]1F [Compound I-148, 2-[[5-bromo-2-[4-[8-[4-[[2-[(3R,4R)-3-fluoro-4-(prop-2-enoylamino)pyrrolidin-1-yl]-9-methyl-purin-6-yl]amino]-3-methoxy-pyrazol-1-yl]octylsulfamoyl]anilino]pyrimidin-4-yl]amino]-6-fluoro-benzamide] | < 500 |  |
| < 500 | CC[C@@H]1C(=O)N(C)c2cnc(Nc3ccc(C(=O)NCCCN4CCN(CCCN(C)C/C=C/C(=O)Nc5cc(Nc6nccc(-c7cn(C)c8ccccc78)n6)c(OC)cc5N(C)CCN(C)C)CC4)cc3OC)nc2N1C1CCCC1 [Compound I-151, 4-[[(7R)-8-cyclopentyl-7-ethyl-5-methyl-6-oxo-7H-pteridin-2-yl]amino]-N-[3-[4-[3-[[(E)-4-[2-[2-(dimethylamino)ethyl-methyl-amino]-4-methoxy-5-[[4-(1-methylindol-3-yl)pyrimidin-2-yl]amino]anilino]-4-oxo-but-2-enyl]-methyl-amino]propyl]piperazin-1-yl]propyl]-3-methoxy-benzamide] | 500 to 1500 |  |
